Where “and” joins values, the source holds several entries; their conditions need not be identical. Equal values may be shown once.
Columns and labels:
Assay type in all cases: in vivo, Sprague-Dawley rats
[1] = test system: Monoiodine Acetate-Induced Osteoarthritis Pain Model; test: Animex test (spontaneous activity), MIA-induced osteoarthritis rats; settings: for Animex test Number of movements: 20 μL i.a. day 8 after MIA, Table 4
Protocol: (§1) Damage to the joint was induced by an individual intraarticular administration, in the paw of a pre-anesthetized rat, of 2 mg of […] (MIA) (volume: 25 μl) according to what described by Guingamp et al., Arthritis Rheum., 40:1670-1679, 1997.
(§2) The experiments described below were performed by injecting into the joint 20 μl of • control (physiological solution); • extract of lyophilized Echinacea purpurea, fraction soluble in hydroalcoholic solution 40-50%, denoted in the figures as 13C1608:2-10-20 mg/ml in PBS (phosphate buffered saline); • extract of lyophilized Centella asiatica, fraction soluble in hydroalcoholic solution 65-75%, denoted in the figures as 14G1862:0.2-1-2 mg/ml in PBS; • bovine synovial fluid: as is; • Hyalgan (Low-molecular weight Hyaluronic acid sodium salt (MW ˜500-730 kDa)):as is; • Jonexa (mixture comprised of a hylastan gel, i.e. a hyaluronic acid crosslinked with divinyl sulfone, and a sodium hyaluronate liquid in the gel-liquid ratio of 80:20): as is; • extract of Centella asiatica fraction soluble in hydroalcoholic solution 65-75%, denoted in the figures as 14G1862: 2 mg/ml in PBS • extract of lyophilized Centella asiatica, fraction soluble in hydroalcoholic solution, denoted in the figures as ABO-AR-2016-391: 2 mg/ml in PBS; • extract of lyophilized Centella asiatica, fraction soluble in hydroalcoholic solution, corresponding to the permeate of fraction ABO-AR-2016-391 after filtration, denoted in the figures as ABO-AR-2016-392:2 mg/ml in PBS; • extract of lyophilized Centella asiatica, fraction soluble in hydroalcoholic solution, corresponding to the retentate of fraction ABO-AR-2016-391 after filtration, denoted in the figures as ABO-AR-2016-393:2 mg/ml in PBS; • Triamcinolone acetonide: 100 μg/[…] • MIX (coextract) Centella+Echinacea lot 17H0246, as described above: 11 mg/ml in water f.p.i.
The mixture of plant extracts was solubilized in accordance with the following protocol: 5.5 g of lyophilized mixture were introduced in a beaker containing 450 g of water and left under stirring 15 min; thereafter, the weight of the liquid was brought to 500 g. For each injection, 30 g of solution were collected and filtered in sequence with 0.45-μ, and 0.22-μm filters. For each filtering, the first 3-4 g of solution were discarded. 20 μL of mixture were injected into the tibiotarsal joint of the rat (using a 26Gx3/8 needle) after having flexed its paw so as to form a 90°-degree angle, at day 8 from articular (joint) damage induction by MIA. […]
The instrument enables to record the spontaneous activity of the animals through use of electromagnetic fields and resonance circuits. […] Variations are recorded by a number counter.

[2] = test system: Monoiodine Acetate-Induced Osteoarthritis Pain Model; test: Beam balance test, MIA-induced osteoarthritis rats; settings: for Beam balance test score, from normal (0) to pathological (4): 20 μL i.a. day 8 after MIA, Table 3
Protocol: as §1, §2
(§3) The mixture of plant extracts was solubilized in accordance with the following protocol: 5.5 g of lyophilized mixture were introduced in a beaker containing 450 g of water and left under stirring 15 min; thereafter, the weight of the liquid was brought to 500 g. For each injection, 30 g of solution were collected and filtered in sequence with 0.45-μ, and 0.22-μm filters. For each filtering, the first 3-4 g of solution were discarded. 20 μL of mixture were injected into the tibiotarsal joint of the rat (using a 26Gx3/8 needle) after having flexed its paw so as to form a 90°-degree angle, at day 8 from articular (joint) damage induction by MIA. For the other substances as well 20 μL of solution were injected (Hyalgan 10 mg/ml; triamcinolone acetonide 100 μg/20m1).
A 1-meter-long wooden beam having a 1 cm-square section was placed at a height of about 40 cm. […]

[3] = test system: rat tibiotarsal joint; test: Histology of the tibiotarsal joint, MIA-treated rats
Protocol: as §1, §2
(§4) Injected material: 20 μL of each sample assayed were injected into rat tibiotarsal joint (using a 26Gx3/8 needle) at […] from damage induction by MIA.
Tissue samples were fixed in 4% formalin in phosphate buffer for 24 hours. Subsequently, samples were decalcified for 28 days in a suitable decalcifying solution (1.6M formic acid, 0.76M sodium formate). At the end of the decalcification, the samples were dehydrated by passages in alcohol with increasing titer, and then included in paraffin. From samples thus processed, 7 μm-thick sections were obtained which were stained by Hematoxylin-Eosin.
The samples were observed under transmitted light optical microscope to assess the morphological parameters subject of analysis: • Inflammatory infiltrate • Synovial hyperplasia • Fibrin deposition in the joint space • Synovial vascularization • Cartilage erosion • Bone erosion • Joint space width
Every morphological parameter was evaluated by a specially provided score (0:absent, 1:scarce, 2:moderate, 3:serious). The evaluation was performed by three separate operators, in blind relative to the origin of the slides. A fourth operator collected data and obtained the final means. For each joint, at least three slides, and for each group at least 6 animals were evaluated. Results are expressed as mean±standard error.

[4] = test system: Monoiodine Acetate-Induced Osteoarthritis Pain Model; test: Paw pressure test, MIA-induced osteoarthritis rats
Protocol: as §1, §2, §4, §3
An analgesimeter (Ugo Basile, Varese, Italy) was used. A pressure increasing at a constant rate (32 g/s) was applied on the hind paw of the animal by a blunt conical element. The nociceptive threshold of the rat was expressed as that force to which the animal reacts by withdrawing the paw or vocalizing (Leighton et al., 1988).

[5] = test system: Monoiodine Acetate-Induced Osteoarthritis Pain Model; test: Incapacitance test, MIA-induced osteoarthritis rats; settings: for Incapacitance test Δ Weight (contralateral - ipsilateral paw): 20 μL i.a. day 8 after MIA, Table 2; for Incapacitance test Δ Weight (paw contralateral - ipsilateral): 20 μL i.a. of fraction (2 mg/ml) or triamcinolone acetonide (100 μg), Table 9
Protocol: as §1, §2, §4, §3
The test is based on the evaluation of the pressure exerted by a rat under conditions of normal posture on each of the hind legs (Hay et al. Neurosci. 78:843-850, 1997). Rats were placed into a small plexiglass box, their hind legs positioned onto two transducers recording the weight the rat distributes on each of the two paws. In case a neuropathy or an inflammation has been induced on one paw, the rat will exert less weight on said paw, compared to the other one.

[6] = coextract study, single i.a. 20 μL, days 14, 30, 60
[7] = Centella fractions study, FIGS. 3 and 4

## CC1(C)O[C@@H]2C[C@H]3[C@@H]4CCC5=CC(=O)C=C[C@]5(C)[C@@]4(F)[C@@H](O)C[C@]3(C)[C@]2(C(=O)CO)O1 [triamcinolone acetonide, Triamcinolone acetonide]
[1]; Day 14
  Animex test Number of movements: 487.3 ± 57.3^
[1]; Day 30
  Animex test Number of movements: 583.3 ± 45.2^
[1]; Day 60
  Animex test Number of movements: 688.9 ± 54.2^
[1]; [6]
  spontaneous mobility, Animex test (in words): effectiveness is lower than that of the plant mixture
[2]; Day 14
  Beam balance test score, from normal (0) to pathological (4): 1.8 ± 0.2^
[2]; Day 30
  Beam balance test score, from normal (0) to pathological (4): 1.3 ± 0.2
[2]; Day 60
  Beam balance test score, from normal (0) to pathological (4): 0.8 ± 0.2
[2]; [6]
  motor abilities, Beam balance test (in words): statistical significance is reached solely at day 14
[3]; [7]
  cartilage and bone tissue erosion (histology, in words): significant effectiveness
  inflammatory infiltrate (histology, in words): significant effectiveness
  joint space reduction (histology, in words): reduced effectiveness to 15- and 30-day timings and a more marked effectiveness after 60 days
  morphological parameters overall (histology, in words): only partially reduces the damaging effects of MIA
  other parameters: synovial hyperplasia, fibrin deposition, synovial vascularization (histology, in words): reduced effectiveness to 15- and 30-day timings and a more marked effectiveness after 60 days
[3]; coextract study, FIG. 18-19
  articular space width (histology, in words): Evident effects
  erosion of cartilage and subchondral bone (histology, in words): analogous result
  fibrin deposition in the articular space (histology, in words): More moderate effects
  inflammatory infiltrate (histology, in words): capable of eliminating the presence of inflammatory infiltrate at all timings analyzed
  synovial hyperplasia and vascularization (histology, in words): More moderate effects
[4]; Day 14, contralateral, 20 μL i.a. day 8 after MIA, Table 1
  Paw pressure test Weight: 64.5 ± 0.9 g
[4]; Day 14, contralateral, 20 μL i.a. of fraction (2 mg/ml) or triamcinolone acetonide (100 μg), Table 8
  Paw pressure test Weight: 65.3 ± 1.0 g
[4]; Day 14, ipsilateral, 20 μL i.a. day 8 after MIA, Table 1
  Paw pressure test Weight: 51.9 ± 1.3^^ g
[4]; Day 14, ipsilateral, 20 μL i.a. of fraction (2 mg/ml) or triamcinolone acetonide (100 μg), Table 8
  Paw pressure test Weight: 52.8 ± 1.1 g
[4]; Day 30, contralateral, 20 μL i.a. day 8 after MIA, Table 1
  Paw pressure test Weight: 68.4 ± 1.6 g
[4]; Day 30, contralateral, 20 μL i.a. of fraction (2 mg/ml) or triamcinolone acetonide (100 μg), Table 8
  Paw pressure test Weight: 65.8 ± 0.5 g
[4]; Day 30, ipsilateral, 20 μL i.a. day 8 after MIA, Table 1
  Paw pressure test Weight: 57.4 ± 0.4^ g
[4]; Day 30, ipsilateral, 20 μL i.a. of fraction (2 mg/ml) or triamcinolone acetonide (100 μg), Table 8
  Paw pressure test Weight: 56.7±2.5 g and 56.7 ± 2.5^^ g
[4]; Day 60, contralateral, 20 μL i.a. day 8 after MIA, Table 1
  Paw pressure test Weight: 64.9 ± 2.1 g
[4]; Day 60, contralateral, 20 μL i.a. of fraction (2 mg/ml) or triamcinolone acetonide (100 μg), Table 8
  Paw pressure test Weight: 66.4 ± 0.7 g
[4]; Day 60, ipsilateral, 20 μL i.a. day 8 after MIA, Table 1
  Paw pressure test Weight: 63.0 ± 1.5^ g
[4]; Day 60, ipsilateral, 20 μL i.a. of fraction (2 mg/ml) or triamcinolone acetonide (100 μg), Table 8
  Paw pressure test Weight: 61.3 ± 1.6 g
[4]; [6]
  antiperalgesic effect, Paw pressure test (in words): significantly reduces the articular pain reaction at all timings
[5]; Centella fractions study, fractions 2 mg/ml, triamcinolone acetonide 100 μg
  Incapacitance test effect (in words): active both at days 14 and 30
[5]; Day 14
  Incapacitance test Δ Weight (contralateral - ipsilateral paw): 45.7 ± 3.9^^ g
  Incapacitance test Δ Weight (paw contralateral - ipsilateral): 28.7 ± 3.2^ g
[5]; Day 30
  Incapacitance test Δ Weight (contralateral - ipsilateral paw): 25.4 ± 4.3^^ g
  Incapacitance test Δ Weight (paw contralateral - ipsilateral): 15.6 ± 5.4^ g
[5]; Day 60
  Incapacitance test Δ Weight (contralateral - ipsilateral paw): 20.9 ± 5.4^ g
  Incapacitance test Δ Weight (paw contralateral - ipsilateral): 5.6 ± 4.4 g
[5]; [6]
  reduction of MIA-induced postural alteration, Incapacitance test (in words): reduces, it also in a statistically significant manner, MIA-induced alteration at all timings considered

Source: patent US11612628B2, “Compositions for the treatment of articular disorders” (Aboca S.p.A. Società Agricola, priority 2017, dated 2023)
